Measurements as given in PubChem BioAssay (NCI).
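How tested: cells in 96-well plates exposed to compound for 48 hours at five concentrations. The concentration for 50% growth inhibition is given as GI50. TGI: total growth inhibition.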

Experiments:
Assay in all cases: DTP human tumour cell line panel, 48 h
MALME-3M melanoma = test system: MALME-3M melanoma
OVCAR-3 ovarian = test system: OVCAR-3 ovarian
SN12C renal = test system: SN12C renal
SNB-75 CNS = test system: SNB-75 CNS
DU-145 prostate = test system: DU-145 prostate
NCI-H23 lung = test system: NCI-H23 lung
SF-539 CNS = test system: SF-539 CNS
A498 renal = test system: A498 renal
CAKI-1 renal = test system: CAKI-1 renal
UO-31 renal = test system: UO-31 renal

Compound: CN1Cc2c(ccc3c2OCO3)[C@@H]2[C@H](O)Cc3cc4c(cc3[C@@H]21)OCO4
- TGI (MALME-3M melanoma): > 100 µM
- TGI (OVCAR-3 ovarian): > 100 µM
- TGI (SN12C renal): > 39.7 µM
- TGI (SNB-75 CNS): 7.64 µM
- TGI (DU-145 prostate): > 30.6 µM
- TGI (NCI-H23 lung): 12.8 µM
- TGI (SF-539 CNS): 4.6 µM
- TGI (A498 renal): 6.07 µM
- TGI (CAKI-1 renal): > 100 µM
- TGI (UO-31 renal): > 100 µM

Compound: CCc1nc2cc(F)ccc2[nH]c1=O
- TGI (MALME-3M melanoma): > 100 µM
- TGI (OVCAR-3 ovarian): > 100 µM
- TGI (SN12C renal): > 100 µM
- TGI (SNB-75 CNS): > 100 µM
- TGI (DU-145 prostate): > 100 µM
- TGI (NCI-H23 lung): > 100 µM
- TGI (SF-539 CNS): > 100 µM
- TGI (A498 renal): > 100 µM
- TGI (CAKI-1 renal): > 100 µM
- TGI (UO-31 renal): > 100 µM

Compound: COc1cc(CC2C(=O)OCC2Cc2ccc(OC)c(OC)c2)ccc1O (stereo not given)
- TGI (MALME-3M melanoma): > 100 µM
- TGI (OVCAR-3 ovarian): > 100 µM
- TGI (SN12C renal): > 100 µM
- TGI (SNB-75 CNS): > 100 µM
- TGI (DU-145 prostate): > 100 µM
- TGI (NCI-H23 lung): > 100 µM
- TGI (SF-539 CNS): > 100 µM
- TGI (A498 renal): > 100 µM
- TGI (CAKI-1 renal): > 100 µM
- TGI (UO-31 renal): > 100 µM

Compound: O=C(CCc1ccccc1)NCCc1ccc(O)c(O)c1
- TGI (MALME-3M melanoma): > 100 µM
- TGI (OVCAR-3 ovarian): > 89 µM
- TGI (SN12C renal): > 69.5 µM
- TGI (SNB-75 CNS): > 100 µM
- TGI (DU-145 prostate): > 100 µM
- TGI (NCI-H23 lung): > 100 µM
- TGI (SF-539 CNS): > 87.5 µM
- TGI (A498 renal): > 100 µM
- TGI (CAKI-1 renal): 29.4 µM
- TGI (UO-31 renal): 49.2 µM

Compound: CCOC(=O)c1ccc(-c2cccs2)[nH]1
- TGI (MALME-3M melanoma): > 100 µM
- TGI (OVCAR-3 ovarian): > 100 µM
- TGI (SN12C renal): > 100 µM
- TGI (SNB-75 CNS): > 100 µM
- TGI (DU-145 prostate): > 100 µM
- TGI (NCI-H23 lung): > 100 µM
- TGI (SF-539 CNS): > 100 µM
- TGI (A498 renal): > 100 µM
- TGI (CAKI-1 renal): > 100 µM
- TGI (UO-31 renal): > 89 µM

Compound: CO[C@@H](c1ccccc1)[C@H](O)[C@@](O)(c1ccccc1)P(=O)(OC)OC
- TGI (MALME-3M melanoma): > 100 µM
- TGI (OVCAR-3 ovarian): > 100 µM
- TGI (SN12C renal): > 100 µM
- TGI (SNB-75 CNS): > 100 µM
- TGI (DU-145 prostate): > 100 µM
- TGI (NCI-H23 lung): > 100 µM
- TGI (SF-539 CNS): > 100 µM
- TGI (A498 renal): > 100 µM
- TGI (CAKI-1 renal): > 100 µM
- TGI (UO-31 renal): > 100 µM

Compound: CC(=O)Oc1cc(OC(C)=O)c2c(c1C)CC[C@@H]1[C@@H]2CC[C@]2(C)[C@@H](OC(C)=O)CC[C@@H]12
- TGI (MALME-3M melanoma): 29.2 µM
- TGI (OVCAR-3 ovarian): 31.7 µM
- TGI (SN12C renal): 33.7 µM
- TGI (SNB-75 CNS): 44 µM
- TGI (DU-145 prostate): 61 µM
- TGI (NCI-H23 lung): 38.8 µM
- TGI (SF-539 CNS): 30.4 µM
- TGI (A498 renal): 34.8 µM
- TGI (CAKI-1 renal): 52.1 µM
- TGI (UO-31 renal): 31.4 µM

Compound: CCOC(=O)C(NC(=O)c1cccc(Cl)c1)(N1CCN(c2cc3c(cc2F)c(=O)c(C(=O)O)cn3CC)CC1)C(F)(F)F (stereo not given)
- TGI (MALME-3M melanoma): 32.4 µM
- TGI (OVCAR-3 ovarian): 38.2 µM
- TGI (SN12C renal): 70.9 µM
- TGI (SNB-75 CNS): 61.2 µM
- TGI (DU-145 prostate): 88.3 µM
- TGI (NCI-H23 lung): 42 µM
- TGI (SF-539 CNS): 30.2 µM
- TGI (A498 renal): 51 µM
- TGI (CAKI-1 renal): 60.9 µM
- TGI (UO-31 renal): 46.6 µM

Compound: CCCSC1=N/C(=C\c2ccco2)C(=O)N1
- TGI (MALME-3M melanoma): > 100 µM
- TGI (OVCAR-3 ovarian): > 100 µM
- TGI (SN12C renal): > 100 µM
- TGI (SNB-75 CNS): > 100 µM
- TGI (DU-145 prostate): > 100 µM
- TGI (NCI-H23 lung): > 100 µM
- TGI (SF-539 CNS): > 100 µM
- TGI (A498 renal): > 100 µM
- TGI (CAKI-1 renal): > 100 µM
- TGI (UO-31 renal): > 100 µM

Compound: O=C1c2sccc2C(=O)c2c(CO)csc21
- TGI (MALME-3M melanoma): 6.71 µM
- TGI (OVCAR-3 ovarian): 6.3 µM
- TGI (SN12C renal): 22.4 µM
- TGI (SNB-75 CNS): 15.1 µM
- TGI (DU-145 prostate): 9.37 µM
- TGI (NCI-H23 lung): 5.95 µM
- TGI (SF-539 CNS): 14.8 µM
- TGI (A498 renal): 31.8 µM
- TGI (CAKI-1 renal): 48.2 µM
- TGI (UO-31 renal): 26.2 µM

Compound: CO/C(N)=C(\C#N)N=Cc1cccs1
- TGI (MALME-3M melanoma): > 100 µM
- TGI (OVCAR-3 ovarian): > 100 µM
- TGI (SN12C renal): > 100 µM
- TGI (SNB-75 CNS): > 100 µM
- TGI (DU-145 prostate): > 100 µM
- TGI (NCI-H23 lung): > 100 µM
- TGI (SF-539 CNS): > 100 µM
- TGI (A498 renal): > 100 µM
- TGI (CAKI-1 renal): > 100 µM
- TGI (UO-31 renal): > 100 µM

Compound: FC(F)(Sc1nc2ccccc2[nH]1)c1nc2ccccc2o1
- TGI (MALME-3M melanoma): > 100 µM
- TGI (OVCAR-3 ovarian): > 100 µM
- TGI (SN12C renal): > 100 µM
- TGI (SNB-75 CNS): > 100 µM
- TGI (DU-145 prostate): > 100 µM
- TGI (NCI-H23 lung): > 100 µM
- TGI (SF-539 CNS): > 100 µM
- TGI (A498 renal): > 100 µM
- TGI (CAKI-1 renal): > 100 µM
- TGI (UO-31 renal): > 100 µM

Compound: COc1ccc2c(C=O)c3n(c(=O)c2c1OC)CCc1cc2c(cc1-3)OCO2
- TGI (MALME-3M melanoma): > 100 µM
- TGI (OVCAR-3 ovarian): > 100 µM
- TGI (SN12C renal): > 100 µM
- TGI (SNB-75 CNS): > 100 µM
- TGI (DU-145 prostate): > 100 µM
- TGI (NCI-H23 lung): > 100 µM
- TGI (SF-539 CNS): > 100 µM
- TGI (A498 renal): > 100 µM
- TGI (CAKI-1 renal): > 100 µM
- TGI (UO-31 renal): > 100 µM

Compound: Cc1cc(N(CCCl)CCCl)ccc1/C=N\NC(=O)c1cccnc1
- GI50 (MALME-3M melanoma): 26.2 µM
- TGI (MALME-3M melanoma): 83.7 µM
- GI50 (OVCAR-3 ovarian): 23.1 µM
- TGI (OVCAR-3 ovarian): 79.3 µM
- GI50 (SN12C renal): 22.4 µM
- TGI (SN12C renal): > 100 µM
- GI50 (SNB-75 CNS): 25.5 µM
- TGI (SNB-75 CNS): > 100 µM
- GI50 (DU-145 prostate): 15.1 µM
- TGI (DU-145 prostate): 99 µM
- GI50 (NCI-H23 lung): 18.4 µM
- TGI (NCI-H23 lung): > 100 µM
- GI50 (SF-539 CNS): 13.9 µM
- TGI (SF-539 CNS): > 100 µM
- GI50 (A498 renal): 1.42 µM
- TGI (A498 renal): 2.92 µM
- GI50 (CAKI-1 renal): 5.46 µM
- TGI (CAKI-1 renal): 45 µM
- GI50 (UO-31 renal): 21.6 µM
- TGI (UO-31 renal): 82.7 µM

Compound: CCN(CC)CCCNc1nnc(C)c2[nH]c3ccccc3c12
- TGI (MALME-3M melanoma): 29.3 µM
- TGI (OVCAR-3 ovarian): 37.7 µM
- TGI (SN12C renal): 43 µM
- TGI (SNB-75 CNS): 38.8 µM
- TGI (DU-145 prostate): 59.9 µM
- TGI (NCI-H23 lung): 38.8 µM
- TGI (SF-539 CNS): 5.86 µM
- TGI (A498 renal): 43.1 µM
- TGI (CAKI-1 renal): > 100 µM
- TGI (UO-31 renal): > 100 µM

Compound: CNC(=O)N(C)C(=O)c1ccccc1C(=O)N(C)C(=O)NC
- TGI (MALME-3M melanoma): > 10 µM
- TGI (OVCAR-3 ovarian): > 10 µM
- TGI (SN12C renal): > 10 µM
- TGI (SNB-75 CNS): > 10 µM
- TGI (DU-145 prostate): > 10 µM
- TGI (NCI-H23 lung): > 10 µM
- TGI (SF-539 CNS): > 10 µM
- TGI (A498 renal): > 10 µM
- TGI (CAKI-1 renal): > 10 µM
- TGI (UO-31 renal): > 10 µM
